Test [1] deals with BL41 Burkitt's lymphoma cells (CD40+). In words: Apoptosis of BL41 Burkitt's lymphoma cells, flow cytometry after DiOC6 labelling. The conditions noted are these: 16 hours. It is filed as cell-based. How it is done: (§1) The agonist effect of the ligands was tested by means of a simple biological test which is based on the property of certain B lymphomas of entering into apoptosis during the bridging of their membranous CD40 molecule (Tong et al., 1999). In fact, these B lymphomas enter into apoptosis during the bridging of their CD40 molecule by an anti-CD40 antibody or by soluble CD40L. The agonist ligands of CD40 will similarly induce an increase in the apoptosis of Burkitt's lymphoma cells which is measured by a precise analysis with flow cytometry.
(§2) BL41 Burkitt's or Raji (ATCC CCL-86) lymphoma cells (5.10^5/mL) two similar cell lines, are cultured in the presence of the different ligands at the desired concentrations. After 16 hours, the cells are labelled with 3,3′-dihexyloxacarbocyanine iodide (DiOC6) at 40 nM (Petit et al., 1995) in order to evaluate the percentage of apoptotic cells using flow cytometry.
A general note: Flow cytometry measures light scatter and fluorescence of single cells or particles in a stream.

In test [2] the target is T1, CD40-CD40L interaction (human CD40 muIg fusion protein, human CD154 muCD8 fusion protein) (Homo sapiens, UniProt P25942).
T1 construct: purchased ANCELL Corporation
In words: BIAcore inhibition of the CD40-CD40L interaction. It is filed as binding. The conditions noted are these: ligand at 1 μM, CD40L at 35 nM. The source says:
(§3) The BIAcore 3000 is a device which allows the study of the interactions between two molecules. Based on surface plasmon resonance, it makes it possible to carry out measurements in real time and thus to follow the interaction kinetics (association and dissociation) of an “analyte” (which is found in an injected solution) with a “ligand” (immobilized on a microchip supporting the measurement). Kinetic measurements at different concentrations of analyte make it possible to calculate the affinity constants of the interaction between the ligand and the analyte. The microchip contains four cells with different measurements, which makes it possible to directly compare a reference cell on which a non-pertinent protein (a protein which has no affinity for the analyte studied but close to the ligand) is immobilized, with the cell on which the ligand is immobilized.
(§4) The test is carried out in two stages: measurement of the direct interaction of the ligands with the CD40 immobilized on the microchip and measurement of the inhibition of the CD40-CD40L interaction by the ligands.
(§5) Rabbit antibodies directed against the constant part of mouse immunoglobulins were immobilized on a microchip. […]
In order to regenerate the cells (i.e. to remove all the proteins adsorbed in non-covalent manner), a 10 mM HCl solution is injected at 5 μL/min over 1 minute. The cells are then ready for a new analysis.
In general terms: In SPR one partner is held on a chip, and binding of the other changes the refractive index at the surface.

In test [3] the target is T2, recombinant CD40 (human CD40 muIg fusion protein) (Homo sapiens, UniProt P25942).
T2 construct: purchased ANCELL Corporation, Bayport, Minn
In words: BIAcore direct interaction of the ligands with immobilized CD40. It is filed as binding. Particulars: BIAcore 3000, kinetics of direct association to immobilized CD40, 30 μL/min over 4 minutes; read-out: dissociation constant.
Source text: as §3, §4, §5
In order to regenerate the cells (i.e. to remove all the proteins adsorbed in a non-covalent manner), a 50 mM HCl solution is injected at 5 μL/min over 1 minute. The cells are then ready for a new analysis.

The test system of test [4] is Raji (ATCC CCL-86) lymphoma cells (CD40+). In words: Apoptosis of Raji lymphoma cells, flow cytometry after DiOC6 labelling. It is filed as cell-based. How it is done: as §1, §2

Experimental findings from US8357654B2, “Multimeric CD40 ligands, method for preparing same and use thereof for preparing drugs” (Centre National de la Recherche Scientifique, priority 2004, dated 2013) are described below.

Non-standard residues stand in square brackets, D forms with d. Residues, ends and D or L forms follow the SMILES beside them. Groups on a side chain read outwards from the residue. No end group written: not given here. *: point of attachment. Biotin = O=C1N[C@H]2[C@H](CS[C@H]2CCCCC(=O)*)N1; Ahx = NCCCCCC(=O)O

T1 sequence (P25942 21-193 limits assumed): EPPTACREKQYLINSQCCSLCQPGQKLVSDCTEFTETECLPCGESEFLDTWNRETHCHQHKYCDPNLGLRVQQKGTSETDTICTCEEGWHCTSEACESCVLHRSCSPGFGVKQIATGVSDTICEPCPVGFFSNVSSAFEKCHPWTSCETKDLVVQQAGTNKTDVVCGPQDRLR
T2 sequence (P25942 21-193 limits assumed): as above

For the molecule `C[C@H]1NC(=O)[C@H](CCCCNC(=O)CCCCCNC(=O)[C@H](Cc2ccc(O)cc2)NC(=O)[C@H](Cc2ccc(O)cc2)NC(=O)CNC(=O)[C@@H](N)CCCCN)NC(=O)[C@@H](C)NC(=O)[C@H](CCCCNC(=O)CCCCCNC(=O)[C@H](Cc2ccc(O)cc2)NC(=O)[C@H](Cc2ccc(O)cc2)NC(=O)CNC(=O)[C@@H](N)CCCCN)NC(=O)[C@@H](C)NC(=O)[C@H](CCCCNC(=O)CCCCCNC(=O)[C@H](Cc2ccc(O)cc2)NC(=O)[C@H](Cc2ccc(O)cc2)NC(=O)CNC(=O)[C@@H](N)CCCCN)NC1=O` [L4] (cyclo(K([Ahx-Tyr-Tyr-Gly-Lys])[dA]K([Ahx-Tyr-Tyr-Gly-Lys])[dA]K([Ahx-Tyr-Tyr-Gly-Lys])[dA])), in test [1] (ligand at 12.5 μM, DiOC6 flow cytometry (FIG. 5C)), the specific apoptosis amounted to 24%.
In the case of `C[C@H]1NC(=O)[C@H](CCCCNC(=O)CCCCCNC(=O)[C@H](Cc2ccc(O)cc2)NC(=O)[C@H](Cc2ccc(O)cc2)NC(=O)[C@H]2CCCN2C(=O)[C@@H](N)CCCCN)NC(=O)[C@@H](C)NC(=O)[C@H](CCCCNC(=O)CCCCCNC(=O)[C@H](Cc2ccc(O)cc2)NC(=O)[C@H](Cc2ccc(O)cc2)NC(=O)[C@H]2CCCN2C(=O)[C@@H](N)CCCCN)NC(=O)[C@@H](C)NC(=O)[C@H](CCCCNC(=O)CCCCCNC(=O)[C@H](Cc2ccc(O)cc2)NC(=O)[C@H](Cc2ccc(O)cc2)NC(=O)[C@H]2CCCN2C(=O)[C@@H](N)CCCCN)NC1=O` [L40] (cyclo(K([Ahx-Tyr-Tyr-dP-Lys])[dA]K([Ahx-Tyr-Tyr-dP-Lys])[dA]K([Ahx-Tyr-Tyr-dP-Lys])[dA])), the “inhibition of the binding of CD40L to CD40” value in test [2] came out at 100%.
For `C[C@H]1NC(=O)[C@H](CCCCNC(=O)CCCCCNC(=O)[C@H](Cc2ccc(O)cc2)NC(=O)[C@H](Cc2ccc(O)cc2)NC(=O)CNC(=O)[C@@H](N)CCCCN)NC(=O)[C@@H](CCCCNC(=O)CCCC[C@@H]2SC[C@@H]3NC(=O)N[C@@H]32)NC(=O)[C@H](CCCCNC(=O)CCCCCNC(=O)[C@H](Cc2ccc(O)cc2)NC(=O)[C@H](Cc2ccc(O)cc2)NC(=O)CNC(=O)[C@@H](N)CCCCN)NC(=O)[C@@H](C)NC(=O)[C@H](CCCCNC(=O)CCCCCNC(=O)[C@H](Cc2ccc(O)cc2)NC(=O)[C@H](Cc2ccc(O)cc2)NC(=O)CNC(=O)[C@@H](N)CCCCN)NC1=O` [L41] (cyclo(K([Ahx-Tyr-Tyr-Gly-Lys])[dA]K([Ahx-Tyr-Tyr-Gly-Lys])[dA]K([Ahx-Tyr-Tyr-Gly-Lys])[dK](Biotin))), the Kd in test [3] came out at 28 nM.
As for “H-Lys-Pro-Tyr-Tyr-Ahx-OH (H-KPYY[Ahx]-OH; SMILES NCCCC[C@H](N)C(=O)N1CCC[C@H]1C(=O)N[C@@H](Cc1ccc(O)cc1)C(=O)N[C@@H](Cc1ccc(O)cc1)C(=O)NCCCCCC(=O)O) [L45, control peptide in which D-Proline is replaced by L-Proline]”, the “biological activity (induction of apoptosis), in words” value in test [1] (dose-response (FIG. 5B, 5C)) is “no activity”.
Take “L43: compound of formula (III-a) in which Rc is Ahx-(D)Pro-Tyr-Tyr-NH—(CH2)5—CO— (peptide [Ahx][dP]YY[Ahx]; chain K[dA]K[dA]K[dA]; also: three copies of chain 1 amide-linked via C-terminal Ahx to the three Lys side-chain amines of the ring (chain 2), head-to-tail to a chain's N/C-terminus)”: the “inhibition of the binding of CD40L to CD40” value in test [2] is recorded as 30%. The “effectiveness in inducing apoptosis, in words” value in test [4] (Raji cells, 16 hours, dose-response (FIG. 5D)) is “less effective than its homologue L4”.
“L62: compound of formula (III-a) in which Rc is H-Lys-ψ(CH2N)-(D)Pro-Tyr-Tyr-NH—(CH2)5—CO— (peptide H-K[dP]YY[Ahx]; chain K[dA]K[dA]K[dA]; also: reduced bond psi(CH2N) between Lys1 and D-Pro2 of chain 1, three copies of chain 1 amide-linked via C-terminal Ahx to the three Lys side-chain amines of the ring (chain 2), head-to-tail to a chain's N/C-terminus)”: the “effectiveness and selectivity of apoptosis induction, in words” value in test [4] (Raji and BL41 (CD40+) versus Jurkat (CD40−) cells, 16 hours (FIGS. 8A, 8B)) was “effective and selective ligand”.
